Experimental data as given in the NIST ThermoML archive (doi:10.1021/acs.jced.8b00438).

Assay: xn = mol fraction of the nth substance listed
Conditions: 100 kPa, Liquid; for viscosity: Falling or rolling sphere viscometry; for mass density: Vibrating tube method

C1CCC(C2CCCCC2)CC1 [1,1'-bicyclohexyl] + CCCCO
Conditions	mass density [kg/m3]	viscosity [mPa·s]
293.15 K, x1 = 0.1007	823.66	2.853
293.15 K, x1 = 0.2009	835.23	2.878
293.15 K, x1 = 0.3021	845.04	2.902
293.15 K, x1 = 0.4007	853.19	2.957
293.15 K, x1 = 0.5038	860.51	3.002
293.15 K, x1 = 0.5992	866.48	3.096
293.15 K, x1 = 0.7006	872.11	3.227
293.15 K, x1 = 0.7983	877.03	3.418
293.15 K, x1 = 0.8835	880.86	3.575
293.15 K, x1 = 1	886.05	4.003
298.15 K, x1 = 0.1007	819.86	2.507
298.15 K, x1 = 0.2009	831.42	2.527
298.15 K, x1 = 0.3021	841.24	2.548
298.15 K, x1 = 0.4007	849.39	2.603
298.15 K, x1 = 0.5038	856.73	2.648
298.15 K, x1 = 0.5992	862.71	2.734
298.15 K, x1 = 0.7006	868.37	2.851
298.15 K, x1 = 0.7983	873.33	3.02
298.15 K, x1 = 0.8835	877.19	3.158
298.15 K, x1 = 1	882.44	3.53
303.15 K, x1 = 0.1007	816.02	2.214
303.15 K, x1 = 0.2009	827.58	2.232
303.15 K, x1 = 0.3021	837.4	2.254
303.15 K, x1 = 0.4007	845.56	2.306
303.15 K, x1 = 0.5038	852.92	2.353
303.15 K, x1 = 0.5992	858.93	2.431
303.15 K, x1 = 0.7006	864.61	2.539
303.15 K, x1 = 0.7983	869.6	2.689
303.15 K, x1 = 0.8835	873.49	2.807
303.15 K, x1 = 1	878.84	3.137
308.15 K, x1 = 0.1007	812.14	1.963
308.15 K, x1 = 0.2009	823.71	1.982
308.15 K, x1 = 0.3021	833.53	2.006
308.15 K, x1 = 0.4007	841.7	2.054
308.15 K, x1 = 0.5038	849.08	2.102
308.15 K, x1 = 0.5992	855.12	2.179
308.15 K, x1 = 0.7006	860.84	2.273
308.15 K, x1 = 0.7983	865.87	2.411
308.15 K, x1 = 0.8835	869.8	2.513
308.15 K, x1 = 1	875.25	2.81
313.15 K, x1 = 0.1007	808.22	1.749
313.15 K, x1 = 0.2009	819.81	1.767
313.15 K, x1 = 0.3021	829.63	1.793
313.15 K, x1 = 0.4007	837.81	1.84
313.15 K, x1 = 0.5038	845.22	1.881
313.15 K, x1 = 0.5992	851.3	1.957
313.15 K, x1 = 0.7006	857.05	2.048
313.15 K, x1 = 0.7983	862.13	2.17
313.15 K, x1 = 0.8835	866.09	2.262
313.15 K, x1 = 1	871.66	2.532
318.15 K, x1 = 0.1007	804.27	1.563
318.15 K, x1 = 0.2009	815.86	1.582
318.15 K, x1 = 0.3021	825.69	1.61
318.15 K, x1 = 0.4007	833.9	1.656
318.15 K, x1 = 0.5038	841.34	1.704
318.15 K, x1 = 0.5992	847.45	1.769
318.15 K, x1 = 0.7006	853.25	1.853
318.15 K, x1 = 0.7983	858.37	1.966
318.15 K, x1 = 0.8835	862.38	2.047
318.15 K, x1 = 1	868.08	2.296
323.15 K, x1 = 0.1007	800.27	1.402
323.15 K, x1 = 0.2009	811.87	1.423
323.15 K, x1 = 0.3021	821.71	1.452
323.15 K, x1 = 0.4007	829.95	1.498
323.15 K, x1 = 0.5038	837.43	1.545
323.15 K, x1 = 0.5992	843.58	1.608
323.15 K, x1 = 0.7006	849.43	1.685
323.15 K, x1 = 0.7983	854.6	1.789
323.15 K, x1 = 0.8835	858.66	1.863
323.15 K, x1 = 1	864.5	2.092
328.15 K, x1 = 0.1007	796.21	1.263
328.15 K, x1 = 0.2009	807.82	1.285
328.15 K, x1 = 0.3021	817.69	1.315
328.15 K, x1 = 0.4007	825.97	1.36
328.15 K, x1 = 0.5038	833.49	1.407
328.15 K, x1 = 0.5992	839.69	1.466
328.15 K, x1 = 0.7006	845.59	1.54
328.15 K, x1 = 0.7983	850.82	1.635
328.15 K, x1 = 0.8835	854.93	1.702
328.15 K, x1 = 1	860.93	1.915
333.15 K, x1 = 0.1007	792.1	1.141
333.15 K, x1 = 0.2009	803.73	1.164
333.15 K, x1 = 0.3021	813.63	1.196
333.15 K, x1 = 0.4007	821.94	1.24
333.15 K, x1 = 0.5038	829.52	1.286
333.15 K, x1 = 0.5992	835.77	1.342
333.15 K, x1 = 0.7006	841.73	1.411
333.15 K, x1 = 0.7983	847.02	1.499
333.15 K, x1 = 0.8835	851.2	1.562
333.15 K, x1 = 1	857.35	1.762
